Values after ≈ are worked out from the molar mass of the structure shown.
Tests used:
Type in all cases: functional
[1] = Antioxidant activity assessed as superoxide radical scavenging activity
[2] = Antioxidant activity assessed as inhibition of H2O2/Fe2+-induced radical generation
[3] = tested on: Radical scavenging activity; test: Antioxidant activity assessed as DPPH free radical scavenging activity
Mus musculus [4] = test: Nephroprotective activity in CD1 Mus musculus (mouse) assessed as reduction of CCl4-induced plasma creatinine level at 20 mg/kg, po administered 30 min before and 3 hr after CCl4 challenge measured 48 hr post CCl4 challenge (reference value: 1.2 +/- 0.006 mg/dl)
Mus musculus [5] = test: Hepatoprotective activity in CD1 Mus musculus (mouse) assessed as reduction of CCl4-induced total cholesterol level in serum at 20 mg/kg, po administered 30 min before and 3 hr after CCl4 challenge measured 48 hr post CCl4 challenge (reference value: 172.57 +/- 4.36 md/dl)
Mus musculus [6] = test: Nephroprotective activity in CD1 Mus musculus (mouse) assessed as reduction of CCl4-induced plasma urea level at 20 mg/kg, po administered 30 min before and 3 hr after CCl4 challenge measured 48 hr post CCl4 challenge (reference value: 61.56 +/- 3.46 mg/dl)
Mus musculus [7] = test: Hepatoprotective activity in CD1 Mus musculus (mouse) assessed as reduction of CCl4-induced serum alanine aminotransferase level at 20 mg/kg, po administered 30 min before and 3 hr after CCl4 challenge measured 48 hr post CCl4 challenge (reference value: 296 +/- 7.93 IU/l)
Mus musculus [8] = test: Hepatoprotective activity in CD1 Mus musculus (mouse) assessed as reduction of CCl4-induced serum alkaline phosphatase level at 20 mg/kg, po administered 30 min before and 3 hr after CCl4 challenge measured 48 hr post CCl4 challenge (reference value: 239.1 +/- 5.98 IU/l)
Mus musculus [9] = test: Hepatoprotective activity in CD1 Mus musculus (mouse) assessed as reduction of CCl4-induced serum aspartate aminotransferase level at 20 mg/kg, po administered 30 min before and 3 hr after CCl4 challenge measured 48 hr post CCl4 challenge (reference value: 487.3 +/- 6.21 IU/l)
Mus musculus [10] = test: Hepatoprotective activity in CD1 Mus musculus (mouse) intoxicated with CCl4 assessed as increase in total protein level in serum at 20 mg/kg, po administered 30 min before and 3 hr after CCl4 challenge measured 48 hr post CCl4 challenge (reference value: 61.80 +/- 5.48 g/l)

IC50 [1] [µg/mL]	IC50 [2] [µg/mL]	IC50 [3] [µg/mL]	SMILES	Activity (Mus musculus [4]) [mg/dL]	Activity (Mus musculus [5]) [mg/dL]	Activity (Mus musculus [6]) [mg/dL]	Activity (Mus musculus [7]) [IU/L]	Activity (Mus musculus [8]) [IU/L]	Activity (Mus musculus [9]) [IU/L]	Activity (Mus musculus [10]) [g/L]
30.4 (≈ 48.5 µM)	22.4 (≈ 35.8 µM)	17.5 (≈ 27.9 µM)	COc1c(O)cc([C@H]2Oc3cc(O)cc(O)c3C(=O)[C@@H]2O[C@@H]2O[C@H](C)[C@@H](O)[C@H](O)[C@@H]2O[C@@H]2O[C@H](C)[C@@H](O)[C@H](O)[C@@H]2O)cc1O	0.74	129.31	49.43	115.1	128.3	161.6	74.76
35.2 (≈ 71.2 µM)	26.7 (≈ 54 µM)	11.6 (≈ 23.5 µM)	COc1cc(O)cc2c1C(=O)[C@H](O[C@@H]1O[C@H](C)[C@@H](O)[C@H](O)[C@@H]1O)[C@@H](c1cc(O)c(OC)c(O)c1)O2	0.71	136.8	47.26	124.2	137.5	189.4	71.57
39.76 (≈ 86 µM)	32.7 (≈ 70.7 µM)	21.4 (≈ 46.3 µM)	COc1ccc([C@@H]2CC(=O)c3c(OC)cc(O[C@@H]4O[C@H](C)[C@@H](O)[C@H](O)[C@@H]4O)cc3O2)cc1O	0.69	140.13	46.62	143.6	149.6	200.6	70.24
25.8 (≈ 57.3 µM)	18.2 (≈ 40.4 µM)	9.3 (≈ 20.6 µM)	C[C@H]1O[C@@H](Oc2cc(O)c3c(c2)O[C@H](c2cc(O)c(O)c(O)c2)CC3=O)[C@@H](O)[C@@H](O)[C@@H]1O	0.76	124.34	51.1	103.4	118.1	145.7	76.1
43.12 (≈ 66.1 µM)	36.42 (≈ 55.8 µM)	24.8 (≈ 38 µM)	COc1ccc(-c2oc3cc(O[C@@H]4O[C@H](CO)[C@@H](O)[C@H](O[C@@H]5O[C@@H](C)[C@H](O)[C@@H](O)[C@H]5O)[C@H]4O)c(OC)c(O)c3c(=O)c2OC)cc1	0.67	143.28	44.78	152.4	156.5	219.4	68.23

SMILES	IC50 [1] [µg/mL]	IC50 [2] [µg/mL]	IC50 [3] [µg/mL]	Activity (Mus musculus [4]) [mg/dL]	Activity (Mus musculus [5]) [mg/dL]	Activity (Mus musculus [6]) [mg/dL]	Activity (Mus musculus [7]) [IU/L]	Activity (Mus musculus [8]) [IU/L]	Activity (Mus musculus [9]) [IU/L]	Activity (Mus musculus [10]) [g/L]
O=c1c(O)c(-c2ccc(O)c(O)c2)oc2cc(O)cc(O)c12 [QUERCETIN]	20.1 (≈ 66.5 µM)	14.6 (≈ 48.3 µM)	8.2 (≈ 27.1 µM)	–	–	–	–	–	–	–

Source: ChEMBL document CHEMBL3046463, “Antihepatotoxic, nephroprotective, and antioxidant activities of phenolic compounds from Satureja macrostema leaves against carbon tetrachloride-induced hepatic damage in mice” (Med Chem Res, 2013)
